Marks after values point to notes of the source that are not given here.
Assays:
AH109A cells = assay: solid tumor growth and metastasis in hepatoma-bearing rats fed ENL-supplemented diets; assay type: in vivo, rat; details: for Total number of metastasis/group / Hepatoma weight: 21 days; for Hepatoma weight: mean ± SEM of 11 rats
Description: Male Donryu rats of four weeks old were purchased from NRC Haruna, Gumma, Japan, and were preliminarily fed for 6 days in quintuple cages in a room with a controlled environment with light period of 8:00 to 20:00, room temperature of 22±1° C., and relative humidity of 60±5%. For the first 3 days, the animals were fed ad libitum with a stock pellet diet (CE-2; CLEA Japan, Tokyo), and for the next 3 days, they were fed a basal diet containing 20% milk casein (20C) (Table 1) ad libitum together with tap water in a glass container. Following the completion of this preparatory raising, the rats were divided into three groups (11 animals per group) with equal average body weights of the respective groups were equal, and 1.0×10^7 of AH109A cells suspended in PBS (−) were transplanted in the back of all the rats. From the time immediately after transplantation, in the respective experimental groups, the animals were fed the experimental diets shown in Table 2. During the experimental period, the body weight, food intake and solid tumor size (sum of length, width and height) were measured everyday. On the day that the animals were killed, animals were deprived of experimental diets at 9:00, but freely given water until they were killed 4 hours later. Blood was collected from carotid, and the liver and solid tumors were excised. The collected blood was allowed to stand for approximately 2 hours at room temperature, and then centrifuged for 10 minutes at 3000 rpm (1750×g), 4° C., to obtain serum. This blood serum was frozen and stored at −20° C. The livers and solid tumors were washed with physiological saline, blotted on filter paper, and weighed. Furthermore, feces from the 19th to 21st days after transplantation were collected, and these feces were frozen and stored at −20° C. for the measurement of the amounts of steroids excreted from the body. The length, width and height of the solid tumors were measured, and the sums of these values were used as an index of solid tumor size.

[1] = liver lipid levels in hepatoma-bearing rats; assay type: in vivo, rat; details: mean ± SEM of 11 rats
Description: Male Donryu rats of four weeks old were purchased from NRC Haruna, Gumma, Japan, and were preliminarily fed for 6 days in quintuple cages in a room with a controlled environment with light period of 8:00 to 20:00, room temperature of 22±1° C., and relative humidity of 60±5%. For the first 3 days, the animals were fed ad libitum with a stock pellet diet (CE-2; CLEA Japan, Tokyo), and for the next 3 days, they were fed a basal diet containing 20% milk casein (20C) (Table 1) ad libitum together with tap water in a glass container. Following the completion of this preparatory raising, the rats were divided into three groups (11 animals per group) with equal average body weights of the respective groups were equal, and 1.0×10^7 of AH109A cells suspended in PBS (−) were transplanted in the back of all the rats. From the time immediately after transplantation, in the respective experimental groups, the animals were fed the experimental diets shown in Table 2.
During the experimental period, the body weight, food intake and solid tumor size (sum of length, width and height) were measured everyday. On the day that the animals were killed, animals were deprived of experimental diets at 9:00, but freely given water until they were killed 4 hours later. Blood was collected from carotid, and the liver and solid tumors were excised. The collected blood was allowed to stand for approximately 2 hours at room temperature, and then centrifuged for 10 minutes at 3000 rpm (1750×g), 4° C., to obtain serum. This blood serum was frozen and stored at −20° C. The livers and solid tumors were washed with physiological saline, blotted on filter paper, and weighed. Furthermore, feces from the 19th to 21st days after transplantation were collected, and these feces were frozen and stored at −20° C. for the measurement of the amounts of steroids excreted from the body.
Total lipids were extracted from the liver for the measurement of lipid levels by the method of Folch et al. (FOLCH J, LEES M, SLOAN-STANLEY G H, A simple method for the isolation and purification of total lipids from animal tissues, J. Biol. Chem. 226: 497-509, 1957). Approximately 0.5 g of liver tissue was weighed out, this tissue was homogenized using a Polytron homogenizer (Type PT10/35, Kinematica, Switzerland) in 5 ml of methanol; then, 10 ml of chloroform was added and mixed, the resulting preparation was allowed to stand overnight, and then filtered. […]
The Ch content was measured by the Zak method (Zak B., Simple rapid microtechnic for serum total cholesterol, Am. J. Clin. Path. 27, 583-588, 1957). […] The resulting mixture was agitated and this preparation was allowed to stand until cool; then, the absorbance at 560 nm thereof was measured with Ch as a standard. […]

O=C1OCC(Cc2cccc(O)c2)C1Cc1cccc(O)c1 (centres unmarked) [Enterolactone, enterolactone]
solid tumor sizes (sum of length, width and height) (AH109A cells; 100 ppm ENL diet, 7th, 8th and 18th to 21 days after transplantation, versus control diet): significant suppression
metastasis over 21 days following transplantation (AH109A cells; ENL diet groups (10 and 100 ppm)): no metastasis was observed
solid tumor weight (AH109A cells; both ENL ingestion groups versus control): significant decrease
Total number of metastasis/group (AH109A cells; diet 10 ppm): 0
Hepatoma weight (AH109A cells; diet 10 ppm): 3.4 ± 1^b g/rat
Total number of metastasis/group (AH109A cells; diet 100 ppm): 0
Hepatoma weight (AH109A cells; diet 100 ppm): 1.1 ± 0.2^b g/rat
Liver lipid level Total cholesterol ([1]; diet 10 ppm): 5.15 ± 0.43 μmol/g liver
Liver lipid level Triglyceride ([1]; diet 10 ppm): 43.8 ± 3.83 μmol/g liver
Liver lipid level Total cholesterol ([1]; diet 100 ppm): 5.47 ± 0.40 μmol/g liver
Liver lipid level Triglyceride ([1]; diet 100 ppm): 42.8 ± 7.05 μmol/g liver

Reference: patent US20070117864A1, “Composition for preventing and treating hepatoma” (Tokyo University of Agr. & Tech. TLO Co., Ltd., priority 2003, published 2007)
